Results published in paper PMC6315173, “Characterization of the Apelin/Elabela Receptors (APLNR) in Chickens, Turtles, and Zebrafish: Identification of a Novel Apelin-Specific Receptor in Teleosts” (Frontiers in Endocrinology, 2018).
Like-named read-outs stand apart in the source and are kept apart here. Positions of bridges follow the written chain, without caps; N, C: chain ends. Residues, ends and D or L forms follow the SMILES beside them. No end group written: not given here.

How the values were obtained:
[1] = target: T1, zebrafish APLNR2b (zfAPLNR2b) (Danio rerio, UniProt A0T2N3); assay: pGL3-CRE-luciferase reporter assay, HEK293 cells expressing zebrafish APLNR2b; assay type: cell-based
T1 construct: the open reading frame (ORF) of each APLNR was amplified from the animal; expressed in transfected cells; host or cells: HEK293
T1 sequence (A0T2N3 1-359): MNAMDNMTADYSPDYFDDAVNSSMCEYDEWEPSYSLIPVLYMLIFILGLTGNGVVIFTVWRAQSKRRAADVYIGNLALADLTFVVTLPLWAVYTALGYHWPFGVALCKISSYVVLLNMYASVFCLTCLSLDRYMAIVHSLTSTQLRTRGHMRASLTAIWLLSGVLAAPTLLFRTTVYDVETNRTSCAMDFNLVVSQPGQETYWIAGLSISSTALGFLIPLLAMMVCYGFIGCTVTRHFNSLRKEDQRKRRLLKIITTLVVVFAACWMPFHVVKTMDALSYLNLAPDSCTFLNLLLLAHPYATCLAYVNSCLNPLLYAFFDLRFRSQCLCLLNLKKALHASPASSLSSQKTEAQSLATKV
Experimental: (§1) In brief, HEK293 cells were cultured on a six-well plate and grown for 24 h before transfection. The cells were then transfected with a mixture containing 700 ng pGL3-CRE-Luciferase reporter construct (or pGL4-SRE-Luciferase reporter construct), 200 ng of receptor expression plasmid [or empty pcDNA3.1(+) vector as a negative control], and 2 μl jetPRIME (Polyplus Transfection, Illkirch, France) in 200 μl buffer. Twenty-four hour later, HEK293 cells were sub-cultured into a 96-well plate at 37°C for an additional 24 h before treatment. After removal of medium from the 96-well plate, the cells were treated with 100 μl peptide-containing medium (or peptide-free medium) for 6 h in the presence or absence of forskolin (5 μM). Finally, HEK293 cells were lysed with 1 × passive lysis buffer for luciferase assay (Promega, Madison, WI, USA) and the luciferase activity of the cell lysate was measured by a Multimode microplate Reader (TriStar LB 941, EG&G Berthold, Germany) according to the manufacturer's instruction.
(§2) The luciferase activity in each treatment group was expressed as the relative fold changes as compared with their respective control groups. The data were analyzed by non-linear regression followed by one-way ANOVA using GraphPad Prism 5 (GraphPad, San Diego, CA, USA). To validate the results, all experiments were repeated at least twice.

[2] = target: T2, zebrafish APLNR2a (zfAPLNR2a) (Danio rerio, UniProt Q7SZP9); assay: pGL3-CRE-luciferase reporter assay, HEK293 cells expressing zebrafish APLNR2a; assay type: cell-based
T2 construct: the open reading frame (ORF) of each APLNR was amplified from the animal; expressed in transfected cells; host or cells: HEK293
T2 sequence (Q7SZP9 1-362): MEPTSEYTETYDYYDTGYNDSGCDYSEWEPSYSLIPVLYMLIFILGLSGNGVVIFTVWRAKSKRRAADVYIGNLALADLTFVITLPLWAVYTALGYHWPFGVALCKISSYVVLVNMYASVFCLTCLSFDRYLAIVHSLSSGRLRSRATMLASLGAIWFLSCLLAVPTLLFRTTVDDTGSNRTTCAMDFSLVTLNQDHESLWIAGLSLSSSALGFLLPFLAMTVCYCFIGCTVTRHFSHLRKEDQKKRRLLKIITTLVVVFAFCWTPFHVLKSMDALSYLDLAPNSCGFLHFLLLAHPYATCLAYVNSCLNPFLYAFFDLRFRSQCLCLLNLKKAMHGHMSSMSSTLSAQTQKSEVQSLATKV
Experimental: as §1, §2

human APLNR (hAPLNR1) = target: T3, human APLNR (hAPLNR1) (Homo sapiens, UniProt P35414); assay: pGL3-CRE-luciferase reporter assay, HEK293 cells expressing human APLNR; assay type: cell-based; conditions: SEM; read-out: EC50 (nM) hAPLNR
T3 construct: human APLNR ORF was also amplified by PCR and cloned into pcDNA3.1 (+) expression vector; expressed in transfected cells; host or cells: HEK293
T3 sequence (P35414 1-380): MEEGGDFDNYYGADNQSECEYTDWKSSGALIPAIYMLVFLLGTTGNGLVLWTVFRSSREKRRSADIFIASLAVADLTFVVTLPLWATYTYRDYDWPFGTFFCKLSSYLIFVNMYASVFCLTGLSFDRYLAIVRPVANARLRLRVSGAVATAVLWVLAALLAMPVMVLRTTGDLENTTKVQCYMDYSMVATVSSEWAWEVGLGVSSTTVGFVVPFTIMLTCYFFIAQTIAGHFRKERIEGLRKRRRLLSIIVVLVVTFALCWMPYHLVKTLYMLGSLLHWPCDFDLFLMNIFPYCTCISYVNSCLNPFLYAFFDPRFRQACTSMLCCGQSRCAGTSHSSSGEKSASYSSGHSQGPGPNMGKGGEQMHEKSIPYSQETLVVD
Experimental: In brief, HEK293 cells were cultured on a six-well plate and grown for 24 h before transfection. The cells were then transfected with a mixture containing 700 ng pGL3-CRE-Luciferase reporter construct (or pGL4-SRE-Luciferase reporter construct), 200 ng of receptor expression plasmid [or empty pcDNA3.1(+) vector as a negative control], and 2 μl jetPRIME (Polyplus Transfection, Illkirch, France) in 200 μl buffer. Twenty-four hour later, HEK293 cells were sub-cultured into a 96-well plate at 37°C for an additional 24 h before treatment. After removal of medium from the 96-well plate, the cells were treated with 100 μl peptide-containing medium (or peptide-free medium) for 6 h in the presence or absence of forskolin (5 μM). […] The luciferase activity in each treatment group was expressed as the relative fold changes as compared with their respective control groups. The data were analyzed by non-linear regression followed by one-way ANOVA using GraphPad Prism 5 (GraphPad, San Diego, CA, USA). To validate the results, all experiments were repeated at least twice.

[3] = system: zebrafish APLNR3a (zfAPLNR3a); assay: pGL3-CRE-luciferase reporter assay, HEK293 cells expressing zebrafish APLNR3a; assay type: cell-based, zebrafish (Danio rerio); conditions: HEK293 cells transiently expressing zfAPLNR3a; inhibition of forskolin (5 μM)-stimulated pGL3-CRE-luciferase activity; 6 h; mean ± S.E. of 3 independent experiments; N = EC50 cannot be evaluated
Experimental: as §1, §2

[4] = system: tilapia APLNR3b (tiAPLNR3b); assay: pGL3-CRE-luciferase reporter assay, HEK293 cells expressing tilapia APLNR3b; assay type: cell-based, Nile tilapia (Oreochromis niloticus); conditions: HEK293 cells transiently expressing tiAPLNR3b; inhibition of forskolin (5 μM)-stimulated pGL3-CRE-luciferase activity; 6 h; mean ± S.E. of 3 independent experiments; N = EC50 cannot be evaluated
Experimental: as §1, §2

Compound	EC50 ([1]; SEM)	EC50 ([2]; SEM)	EC50 (human APLNR (hAPLNR1))	EC50 [1]	EC50 [2]	EC50 [3]	EC50 [4]
CSCC[C@H](NC(=O)[C@@H]1CCCN1C(=O)CNC(=O)[C@H](CCCCN)NC(=O)[C@H](Cc1c[nH]cn1)NC(=O)[C@H](CO)NC(=O)[C@H](CC(C)C)NC(=O)[C@H](CCCNC(=N)N)NC(=O)[C@@H]1CCCN1C(=O)[C@H](CCCNC(=N)N)NC(=O)[C@@H]1CCCN1)C(=O)N1CCC[C@H]1C(=O)N[C@@H](Cc1ccccc1)C(=O)O [cApelin-13]	12.7 ± 5.21 nM	2.82 ± 1.18 nM	0.55 ± 0.21 nM				
CSCC[C@H](NC(=O)[C@@H](N)CS)C(=O)N1CCC[C@H]1C(=O)N[C@@H](CC(C)C)C(=O)N[C@@H](Cc1cnc[nH]1)C(=O)N[C@@H](CO)C(=O)N[C@@H](CCCNC(=N)N)C(=O)N[C@H](C(=O)N1CCC[C@H]1C(=O)N[C@@H](Cc1ccccc1)C(=O)N1CCC[C@H]1C(=O)O)C(C)C [cELA-11]				> 100 nM	> 100 nM		
CSCC[C@H](NC(=O)[C@H](CS)NC(=O)[C@H](CCCNC(=N)N)NC(=O)[C@H](CCCNC(=N)N)NC(=O)[C@H](Cc1c[nH]cn1)NC(=O)[C@H](CO)NC(=O)[C@H](CS)NC(=O)[C@H](CC(N)=O)NC(=O)[C@H](Cc1c[nH]cn1)NC(=O)[C@H](CCCNC(=N)N)NC(=O)[C@H](Cc1c[nH]cn1)NC(=O)[C@H](CC(C)C)NC(=O)[C@H](CCCCN)NC(=O)[C@H](CCCNC(=N)N)NC(=O)[C@H](CCCNC(=N)N)NC(=O)[C@H](CC(C)C)NC(=O)[C@H](C)NC(=O)[C@H](CC(C)C)NC(=O)[C@H](CC(N)=O)NC(=O)[C@H](C)NC(=O)[C@@H]1CCCN1C(=O)[C@H](CCCNC(=N)N)NC(=O)[C@@H](N)CCC(N)=O)C(=O)N1CCC[C@H]1C(=O)N[C@@H](CC(C)C)C(=O)N[C@@H](Cc1c[nH]cn1)C(=O)N[C@@H](CO)C(=O)N[C@@H](CCCNC(=N)N)C(=O)N[C@H](C(=O)N1CCC[C@H]1C(=O)N[C@@H](Cc1ccccc1)C(=O)N1CCC[C@H]1C(=O)O)C(C)C [cELA-32b] (H-QRPANLALRRKLHRHNCSHRRCMPLHSRVPFP-OH)	1.02 ± 0.23 nM	1.68 ± 0.58 nM	0.28 ± 0.05 nM				
CSCC[C@H](NC(=O)[C@@H]1CSSC[C@H](NC(=O)[C@H](CC(N)=O)NC(=O)[C@H](Cc2c[nH]cn2)NC(=O)[C@H](CCCNC(=N)N)NC(=O)[C@H](Cc2c[nH]cn2)NC(=O)[C@H](CC(C)C)NC(=O)[C@H](CCCCN)NC(=O)[C@H](CCCNC(=N)N)NC(=O)[C@H](CCCNC(=N)N)NC(=O)[C@H](CC(C)C)NC(=O)[C@H](C)NC(=O)[C@H](CC(C)C)NC(=O)[C@H](CC(N)=O)NC(=O)[C@H](C)NC(=O)[C@@H]2CCCN2C(=O)[C@H](CCCNC(=N)N)NC(=O)[C@@H](N)CCC(N)=O)C(=O)N[C@@H](CO)C(=O)N[C@@H](Cc2c[nH]cn2)C(=O)N[C@@H](CCCNC(=N)N)C(=O)N[C@@H](CCCNC(=N)N)C(=O)N1)C(=O)N1CCC[C@H]1C(=O)N[C@@H](CC(C)C)C(=O)N[C@@H](Cc1c[nH]cn1)C(=O)N[C@@H](CO)C(=O)N[C@@H](CCCNC(=N)N)C(=O)N[C@H](C(=O)N1CCC[C@H]1C(=O)N[C@@H](Cc1ccccc1)C(=O)N1CCC[C@H]1C(=O)O)C(C)C [cELA-32a] (H-QRPANLALRRKLHRHNCSHRRCMPLHSRVPFP-OH; disulfide 17-22)	2.55 ± 0.11 nM	1.81 ± 0.74 nM	0.26 ± 0.07 nM				
CC(C)C[C@H](NC(=O)[C@@H]1CCCN1C(=O)[C@H](CC(C)C)NC(=O)[C@H](CS)NC(=O)[C@H](CCCNC(=N)N)NC(=O)[C@H](CCCCN)NC(=O)[C@H](CCCCN)NC(=O)[C@@H]1CCCN1C(=O)[C@H](CS)NC(=O)[C@H](CC(N)=O)NC(=O)[C@H](Cc1c[nH]cn1)NC(=O)[C@H](CCCNC(=N)N)NC(=O)[C@H](CCCNC(=N)N)NC(=O)[C@H](Cc1ccc(O)cc1)NC(=O)[C@@H](N)CCCCN)C(=O)N[C@@H](Cc1c[nH]cn1)C(=O)N[C@@H](CO)C(=O)N[C@@H](CCCNC(=N)N)C(=O)N[C@H](C(=O)N1CCC[C@H]1C(=O)N[C@@H](Cc1ccccc1)C(=O)N1CCC[C@H]1C(=O)O)C(C)C [zfELA-22] (H-KYRRHNCPKKRCLPLHSRVPFP-OH; N-terminus and C-terminus assumed)	1.78 ± 1.17 nM	1.43 ± 0.57 nM				> 100 nM	> 100 nM
LVRPRGARRGNVRRPGGWRRLRRPRPRLSHKGPMPF [cApelin-36]	0.9 ± 0.33 nM	2.96 ± 1.26 nM	0.16 ± 0.06 nM				
